Like-named read-outs stand apart in the source and are kept apart here.
Experiments:
TR-iBRB2 cells [1] = experiment: Effect of compounds on [3H]amantadine uptake by TR-iBRB2 cells; type: in vitro ADME, rat
Description: (§1) In 10% fetal bovine serum (FBS; Merck, Darmstadt, Germany)-containing Dulbecco’s modified Eagle’s medium (DMEM; Nissui Pharmaceutical, Tokyo, Japan) with 20 mM NaHCO3, 0.19 mM benzylpenicillin potassium, and 0.14 mM streptomycin sulfate, TR-iBRB2 cells (passage number 32–60) were cultured according to previous reports. As described previously, RPE-J cells (passage number 79-92) were cultured in DMEM with 4% FBS, 20 mM NaHCO3, and 0.1 mM non-essential amino acid (FUJIFILM Wako Pure Chemical, Osaka, Japan) containing 0.16 mM benzylpenicillin potassium and 0.17 mM streptomycin sulfate. In accordance with established protocols for the uptake study, the cells were seeded at a density of 1.0 × 10^5 cells/well onto a collagen I-coated 24-well plate (BioCoat™ Collagen I Cellware, Corning, Corning, NY, USA) and cultured for 2 days, at 33 °C, under 5% CO2/air. Referring to the previous reports, we started the uptake reaction, and the details of the procedure are included in the Supplemental Materials.
(§2) Cell/medium ratio = [^3H]compound (dpm) per cell protein (mg)/[^3H]compound (dpm) per medium (µL)(2) […]
(§3) 7.4) three times at 37°C.
(§4) and KHCO3, respectively. Cl--free ECF buffer was prepared by replacing equimolar
(§5) protein assay kit (Bio-Rad, Hercules, CA, USA).

RPE-J cells [2] = experiment: Effect of compounds on [3H]amantadine uptake by RPE-J cells; type: in vitro ADME, rat
Description: as §1, §2, §3, §4, §5

RPE-J cells [3] = experiment: Verapamil uptake by RPE-J cells, effect of amantadine; type: in vitro ADME, rat
Description: as §1
(§6) Cell/medium ratio = [^3H]compound (dpm) per cell protein (mg)/[^3H]compound (dpm) per medium (µL)(2)
(§7) Kinetic parameters for cell uptake, such as the maximal uptake rate (Vmax), Michaelis–Menten constant (Km), and non-saturable uptake clearance (Kd), were obtained by using the nonlinear least-squares regression analysis program (MULTI) with Equations (3)–(5), where the uptake rate of the test compound and its concentration were V and S, respectively. V = (Vmax × S)/(Km + S)(3) V = (Vmax × S)/(Km + S) + Kd × S(4) V = (Vmax1 × S)/(Km1 + S) + (Vmax2 × S)/(Km2 + S)(5) […]
as §3, §4, §5

TR-iBRB2 cells [4] = experiment: Amantadine uptake by TR-iBRB2 cells (inner BRB model); type: in vitro ADME, rat
Description: as §1, §6, §7, §3, §4, §5

[5] = parameters: method as in ref 31 = [31]; 31. Grabowski T. Gumulka S.W. Borucka B. Raszewski W. Analysis relationships between pharmacokinetic parameters in silico/in vivo of selected antiviral drugs based on structural analysis Adv. Clin. Ex; conditions: cited from earlier work
NMDA receptors = molecular target: NMDA receptors; parameters: method as in ref 47 (Parsons et al.); conditions: ref 47 (Parsons et al.); cited from earlier work
[6] = pharmacotherapy for Parkinson's disease; cited from earlier work
RPE-J cells [7] = experiment: Amantadine uptake by RPE-J cells (outer BRB model); type: in vitro ADME, rat; conditions: for Km1 (high-affinity process): 1.67 µM−10 mM
Description: as §1, §6, §7, §3, §4, §5

[8] = tested on: retina (blood–retinal barrier); experiment: In vivo blood-to-retina transport, retinal uptake index (RUI) method; conditions: co-administration of 50 mM compound, rat
[9] = cited from earlier work
[10] = Rattus norvegicus, 0.05 h, read-out: [3H]amantadine uptake, % of Control, TR-iBRB2
[11] = Rattus norvegicus, 0.05 h, read-out: [3H]amantadine uptake, % of Control, RPE-J
[12] = compound 0.2 mM, [3H]amantadine 1.67 µM, 3 min, 37 °C
[13] = compound 2.5 mM, [3H]amantadine 1.67 µM, 3 min, 37 °C
[14] = pretreatment 30 mM NH4Cl, 15 s, 37 °C

## C[N+](C)(C)CCO [Choline]
TR-iBRB2 cells [1]; [10]
  activity at 200 µM: 101 ± 8%
RPE-J cells [2]; [11]
  activity at 200 µM: 124 ± 39%

## COc1ccc(CN(CCN(C)C)c2ccccn2)cc1 [Pyrilamine]
TR-iBRB2 cells [1]; [10]
  activity at 200 µM: 20.9 ± 1.8%
RPE-J cells [2]; [11]
  activity at 200 µM: 77.8 ± 38.4%
  activity at 1000 µM: 18.2 ± 1.7%

## O=C(O)[C@H](O)[C@@H](O)[C@H](O)[C@H](O)CO [Gluconate]
TR-iBRB2 cells [1]; [12]
  [3H]amantadine uptake, % of Control, TR-iBRB2: 91.7 ± 21.7 % of Control
RPE-J cells [2]; [12]
  [3H]amantadine uptake, % of Control, RPE-J: 86.2 ± 23.4 % of Control

## COc1ccc(CCN(C)CCCC(C#N)(c2ccc(OC)c(OC)c2)C(C)C)cc1OC (centres unmarked) [Verapamil]
TR-iBRB2 cells [1]
  [3H]amantadine uptake, % of Control, TR-iBRB2: 22.1 ± 6.2 % of Control
RPE-J cells [3]
  Km: 55.6 ± 5.2 µM
  Vmax: 6.31 ± 0.35 nmol/(min·mg protein)
  reduction of [3H]verapamil uptake by unlabeled verapamil: 86%
RPE-J cells [2]
  [3H]amantadine uptake, % of Control, RPE-J: 20.5 ± 4.8 % of Control

## C[N+](C)(C)C[C@H](O)CC(=O)[O-] [L-Carnitine]
TR-iBRB2 cells [1]; [12]
  [3H]amantadine uptake, % of Control, TR-iBRB2: 111 ± 35 % of Control
TR-iBRB2 cells [1]; [13]
  [3H]amantadine uptake, % of Control, TR-iBRB2: 99.5 ± 2.3 % of Control
RPE-J cells [2]; [12]
  [3H]amantadine uptake, % of Control, RPE-J: 95.1 ± 5.2 % of Control
RPE-J cells [2]; [13]
  [3H]amantadine uptake, % of Control, RPE-J: 119 ± 28 % of Control

## N#CC(C#N)=NNc1ccc(OC(F)(F)F)cc1 [FCCP, carbonyl cyanide-p-trifluoromethoxyphenylhydrazone]
TR-iBRB2 cells [1]
  decrease of [3H]amantadine uptake: 50%

## NCCc1c[nH]c2ccc(O)cc12 [Serotonin]
TR-iBRB2 cells [1]; [10]
  activity at 200 µM: 126 ± 60%
RPE-J cells [2]; [11]
  activity at 200 µM: 158 ± 52%

## CN/C(=N/CCSCc1nc[nH]c1C)NC#N [Cimetidine]
TR-iBRB2 cells [1]
  [3H]amantadine uptake, % of Control, TR-iBRB2: 97.6 ± 24.7 % of Control
RPE-J cells [2]; [12]
  [3H]amantadine uptake, % of Control, RPE-J: 106 ± 5 % of Control

## Nc1ccc(C(=O)NCC(=O)O)cc1 [PAH, p-aminohippuric acid]
TR-iBRB2 cells [1]; [10]
  activity at 200 µM: 85.8 ± 10.8%
RPE-J cells [2]; [11]
  activity at 200 µM: 139 ± 33%

## N[C@@H](CCC(=O)O)C(=O)O [L-Glutamic acid]
TR-iBRB2 cells [1]; [10]
  activity at 2500 µM: 80.2 ± 10%
RPE-J cells [2]; [11]
  activity at 2500 µM: 84.5 ± 16.4%

## CN(C)CCCN1c2ccccc2CCc2ccccc21 [Imipramine]
TR-iBRB2 cells [1]; [10]
  activity at 200 µM: 8.37 ± 1.43%
RPE-J cells [2]; [11]
  activity at 200 µM: 16.9 ± 5.2%

## NCC(=O)O [Glycine]
TR-iBRB2 cells [1]; [13]
  [3H]amantadine uptake, % of Control, TR-iBRB2: 102 ± 4 % of Control
RPE-J cells [2]; [13]
  [3H]amantadine uptake, % of Control, RPE-J: 116 ± 13 % of Control

## CC[N+](CC)(CC)CC [TEA, tetraethylammonium]
TR-iBRB2 cells [1]
  [3H]amantadine uptake, % of Control, TR-iBRB2: 117 ± 45 % of Control
RPE-J cells [2]; [12]
  [3H]amantadine uptake, % of Control, RPE-J: 87.7 ± 11.8 % of Control
RPE-J cells [2]; compound 1.0 mM, [3H]amantadine 1.67 µM, 3 min, 37 °C
  [3H]amantadine uptake, % of Control, RPE-J: 81.8 ± 10.3 % of Control

## NC12CC3CC(CC(C3)C1)C2 [Amantadine]
TR-iBRB2 cells [1]; [10]
  activity at 200 µM: 34.1 ± 4.1%
TR-iBRB2 cells [4]
  reduction of uptake at extracellular pH 6.4: 64%
TR-iBRB2 cells [4]; 4 °C vs 37 °C
  reduction of uptake at 4 °C: 86%
TR-iBRB2 cells [4]; 37 °C, 3 min, 1.67 to 1000 µM
  Km: 79.4 µM
  Vmax: 1.36 ± 0.38 nmol/(min·mg protein)
TR-iBRB2 cells [4]; 3 min, 37 °C
  reduction of uptake in Cl−-free buffer: 38%
TR-iBRB2 cells [4]; [3H]amantadine 1.67 µM, 37 °C
  initial uptake rate: 14.0 ± 4.1 µL/(min·mg protein)
TR-iBRB2 cells [4]; acute 30 mM NH4Cl, 15 s, 37 °C
  decrease of uptake at alkalized intracellular pH: 80%
TR-iBRB2 cells [4]; [14]
  increase of uptake at acidified intracellular pH: 90%
[5]
  log D: 0.176
NMDA receptors
  IC50: 20 µM
[6]
  plasma concentration range: 600 to 29000 nM
RPE-J cells [7]
  Km2 (low-affinity process): 9830 ± 1620 µM
  Vmax1 (high-affinity process): 0.914 ± 0.510 nmol/(min·mg protein)
  Vmax2 (low-affinity process): 85.3 ± 11.4 nmol/(min·mg protein)
  contribution of the high-affinity process: 54%
  contribution of the low-affinity process: 46%
  decrease of uptake at extracellular pH 6.4: 32%
  increase of uptake at extracellular pH 8.4: 25%
  Km1 (high-affinity process): 90.5 ± 49.6 µM
RPE-J cells [7]; listed as amantadine
  Km1 (high-affinity process): 90.5 µM
  Km2 (low-affinity process): 9830 µM
RPE-J cells [7]; 4 °C vs 37 °C
  reduction of uptake at 4 °C: 87%
RPE-J cells [7]; [3H]amantadine 1.67 µM, 37 °C
  initial uptake rate: 15.9 ± 0.3 µL/(min·mg protein)
RPE-J cells [7]; acute 30 mM NH4Cl, 15 s, 37 °C
  decrease of uptake at alkalized intracellular pH: 78%
RPE-J cells [7]; [14]
  increase of uptake at acidified intracellular pH: 18%
[8]
  decrease of [3H]amantadine RUI: 44%
RPE-J cells [2]; [11]
  activity at 200 µM: 89.9 ± 5.6%
  activity at 1000 µM: 21.3 ± 3.1%
[9]
  pKa: 10.1

From paper PMC8469395 (Pharmaceutics, 2021)
